These results are taken from US11339181B2, “Crystalline forms of a Janus kinase inhibitor” (Japan Tobacco Inc., priority 2016, dated 2022).

Converted amounts (≈) assume the structure as drawn.

The data set is described as follows: Solubility test (shaken at 20° C. for 3 hours, filtered, HPLC). In kind it is physicochemical. The note with it: for solubility at 3 h: 20 °C, thermodynamic from solid; for solubility at 3 h / Solubility: 20° C., shaken 3 hours; for Solubility rank among Forms α, β, γ: in each solvent measured. On the procedure:
Each sample (i.e., Forms α, β, and γ of Compound A) was weighed to a 4-mL-volume glass vial. A test solution (3 mL) was added to the vial and the mixture was suspended. About 150 mg of the sample was weighed for the test solution of the 1st fluid for solubility test of The Japanese Pharmacopoeia and about 15 mg was weighed for the test solutions of the 2nd fluid for solubility test of The Japanese Pharmacopoeia and water. Each mixture was shaken with a constant temperature incubator shaker (manufactured by TAITEC) at 20° C. for 3 hours. After being shaken, the supernatant was filtered through a polytetrafluoroethylene disk filter (Millex-LG; manufactured by Millipore) with the 0.2-μm pore size and 4-mm diameter. The measurement was performed by high-performance liquid chromatography (HPLC).

Where [1] appears, read: Solvent: JP 1st fluid for solubility test, pH about 1.2.
Where [2] appears, read: Solvent: JP 2nd fluid for solubility test (water / phosphate buffer pH 6.8, 1:1).

`C[C@H]1CN(C(=O)CC#N)[C@]12CCN(c1ncnc3[nH]ccc13)C2` [Form α, 3-((3S,4R)-3-methyl-6-(7H-pyrrolo[2,3-d]pyrimidin-4-yl)-1,6-diazaspiro[3.4]octan-1-γ 1)-3-oxopropanenitrile]: the “Solubility rank among Forms α, β, γ” value is reported as “highest solubility”. For the same compound, for the setting “JP 1st fluid for solubility test, pH 1.2, simulated gastric fluid, Solvent: JP 1st fluid for solubility test, pH about 1.2”, the solubility – broadly, the concentration that dissolves in the medium under given conditions – at 3 h was 45000 µg/mL (≈ 145 mM). This compound also displayed a solubility at 3 h (JP 2nd fluid for solubility test, pH 6.8, aqueous buffer, Solvent: JP 2nd fluid for solubility test (water / phosphate buffer pH 6.8, 1:1)) of 2700 µg/mL (≈ 8.7 mM). This compound registered a solubility at 3 h (water, water, Solvent: Water) of 2600 µg/mL (≈ 8.38 mM).
For `C[C@H]1CN(C(=O)CC#N)[C@]12CCN(c1ncnc3[nH]ccc13)C2` [Form β, 3-((3S,4R)-3-methyl-6-(7H-pyrrolo[2,3-d]pyrimidin-4-yl)-1,6-diazaspiro[3.4]octan-1-γ 1)-3-oxopropanenitrile], the Solubility (usually the concentration that dissolves in the medium under given conditions) by setting is: under setting [1], 39100 µg/mL (≈ 126 mM); under setting [2], 2100 µg/mL (≈ 6.77 mM); (Solvent: Water) 2000 µg/mL (≈ 6.44 mM).
`C[C@H]1CN(C(=O)CC#N)[C@]12CCN(c1ncnc3[nH]ccc13)C2` [Form γ, 3-((3S,4R)-3-methyl-6-(7H-pyrrolo[2,3-d]pyrimidin-4-yl)-1,6-diazaspiro[3.4]octan-1-γ 1)-3-oxopropanenitrile]: the “Solubility rank among Forms α, β, γ” value is “lowest solubility”. This compound showed a Solubility under setting [1] of 36400 µg/mL (≈ 117 mM). The Solubility under setting [2] was 1500 µg/mL (≈ 4.83 mM). This compound also yielded a Solubility (Solvent: Water) of 1500 µg/mL (≈ 4.83 mM).
